Results taken from patent US9598423B2 (BRISTOL-MYERS SQUIBB COMPANY, priority 2013, dated 2017).

Key:
CK1ε = CK1ε (Homo sapiens (Human), UniProt P49674); assay: CK1ε kinase assay (Caliper LABCHIP electrophoretic separation of fluoresceinated peptide substrate and product); type: biochemical; conditions: 200 pM CK1ε, 50 μM ATP, 1.5 μM peptide substrate, 22 hours at room temperature; read-out: CK1ε (IC50)
How it was run: (§1)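 IC50 values were obtained by non-linear regression from eleven-concentration titrations. The kinase reactions were incubated for 22 hours at room temperature before termination with 35 mM EDTA.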

CK1δ = CK1δ (Homo sapiens (Human), UniProt P48730); assay: CK1δ kinase assay (Caliper LABCHIP electrophoretic separation of fluoresceinated peptide substrate and product); type: biochemical; conditions: 200 pM CK1δ, 50 μM ATP, 1.5 μM peptide substrate, 22 hours at room temperature; read-out: CK1δ (IC50)
Sequence of CK1δ (P48730 whole entry): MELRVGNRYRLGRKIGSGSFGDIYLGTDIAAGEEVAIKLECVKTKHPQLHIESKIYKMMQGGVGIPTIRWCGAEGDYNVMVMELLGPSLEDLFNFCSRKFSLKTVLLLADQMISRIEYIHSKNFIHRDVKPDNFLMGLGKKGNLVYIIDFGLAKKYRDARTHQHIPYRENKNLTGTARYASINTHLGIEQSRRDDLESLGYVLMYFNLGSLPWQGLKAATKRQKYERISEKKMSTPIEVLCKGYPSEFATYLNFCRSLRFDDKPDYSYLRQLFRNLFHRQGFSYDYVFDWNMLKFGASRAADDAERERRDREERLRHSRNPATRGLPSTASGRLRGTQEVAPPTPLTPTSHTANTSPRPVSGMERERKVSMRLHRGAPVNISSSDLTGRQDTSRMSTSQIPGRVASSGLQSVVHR
How it was run: as §1

Sequence of CK1ε (P49674 whole entry): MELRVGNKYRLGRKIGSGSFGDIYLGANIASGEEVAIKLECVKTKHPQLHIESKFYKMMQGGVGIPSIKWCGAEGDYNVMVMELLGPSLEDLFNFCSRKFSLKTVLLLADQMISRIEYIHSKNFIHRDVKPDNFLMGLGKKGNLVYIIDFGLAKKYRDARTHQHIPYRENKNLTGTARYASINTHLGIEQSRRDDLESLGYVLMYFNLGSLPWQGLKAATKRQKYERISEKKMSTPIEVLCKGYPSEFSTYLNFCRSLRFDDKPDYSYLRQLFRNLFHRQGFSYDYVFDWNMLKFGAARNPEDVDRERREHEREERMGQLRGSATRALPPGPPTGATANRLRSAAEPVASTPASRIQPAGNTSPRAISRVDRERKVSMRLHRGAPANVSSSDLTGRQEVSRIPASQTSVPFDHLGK

IC50 (CK1ε)	IC50 (CK1δ)	Compound
0.01 to 10 nM	0.01 to 10 nM	CC1Cn2nc(-c3ccc(Cl)c(Cl)c3)c(C(N)=O)c2CN1C(=O)Nc1ccc(C#N)cc1 (single isomer, unassigned) [Compound 334, N^5-(4-Cyanophenyl)-2-(3,4-dichlorophenyl)-6-methyl-6,7-dihydropyrazolo[1,5-a]pyrazine-3,5(4H)-dicarboxamide]
0.01 to 10 nM	0.01 to 10 nM	NC(=O)c1c(-c2cc(Cl)c(F)c(Cl)c2)nn2c1CN(C(=O)Nc1cc(Cl)cc(Cl)c1)CC2 [Compound 261, 2-(3,5-Dichloro-4-fluorophenyl)-N^5-(3,5-dichlorophenyl)-6,7-dihydropyrazolo[1,5-a] pyrazine-3,5(4H)-dicarboxamide]
0.01 to 10 nM	0.01 to 10 nM	Cc1cc(NC(=O)N2CCn3nc(-c4ccc(Cl)c(Cl)c4)c(C(N)=O)c3C2)ccc1C#N [Compound 214, N^5-(4-Cyano-3-methylphenyl)-2-(3,4-dichlorophenyl)-6,7-dihydropyrazolo[1,5-a] pyrazine-3,5(4H)-dicarboxamide]
0.01 to 10 nM	0.01 to 10 nM	NC(=O)c1c(-c2cc(Cl)c(F)c(Cl)c2)nn2c1CN(C(=O)Nc1ccc(F)c(F)c1)CC2 [Compound 260, 2-(3,5-Dichloro-4-fluorophenyl)-N^5-(3,4-difluorophenyl)-6,7-dihydropyrazolo[1,5-a] pyrazine-3,5(4H)-dicarboxamide]
0.01 to 10 nM	0.01 to 10 nM	CC(C)(C)NC(=O)N1CCn2nc(-c3cc(Cl)cc(Cl)c3)c(C(N)=O)c2C1 [Compound 117, N^5-(tert-Butyl)-2-(3,5-dichlorophenyl)-6,7-dihydropyrazolo[1,5-a]pyrazine-3,5(4H)-dicarboxamide]
0.01 to 10 nM	0.01 to 10 nM	Cc1ccc(-c2nn3c(c2C(N)=O)CN(C(=O)Nc2ccc(C#N)c(F)c2)CC3)cc1Cl [Compound 255, 2-(3-Chloro-4-methylphenyl)-N^5-(4-cyano-3-fluorophenyl)-6,7-dihydropyrazolo [1,5-a]pyrazine-3,5(4H)-dicarboxamide]
0.01 to 10 nM	0.01 to 10 nM	NC(=O)c1c(-c2cc(Cl)c(F)c(Cl)c2)nn2c1CN(C(=O)Nc1ccc(C(F)(F)F)cc1)CC2 [Compound 262, 2-(3,5-Dichloro-4-fluorophenyl)-N^5-(4-(trifluoromethyl)phenyl)-6,7-dihydropyrazolo[1,5-a]pyrazine-3,5(4H)-dicarboxamide]
0.01 to 10 nM	0.01 to 10 nM	NC(=O)c1c(-c2cccc(F)c2)nn2c1CN(C(=O)Nc1cc(F)cc(F)c1)CC2 [Compound 31, N^5-(3,5-Difluorophenyl)-2-(3-fluorophenyl)-6,7-dihydropyrazolo[1,5-a]pyrazine-3,5(4H)-dicarboxamide]
0.01 to 10 nM	0.01 to 10 nM	N#Cc1ccc(NC(=O)N2CCn3nc(-c4ccc(F)c(Cl)c4)c(C(N)=O)c3C2)cc1N1CCOCC1 [Compound A49, 2-(3-Chloro-4-fluorophenyl)-N^5-(4-cyano-3-morpholinophenyl)-6,7-dihydropyrazolo[1,5-a]pyrazine-3,5(4H)-dicarboxamide]
0.01 to 10 nM	0.01 to 10 nM	NC(=O)c1c(-c2ccc(F)c(Cl)c2)nn2c1CN(C(=O)Nc1cc(Cl)cc(Cl)c1)CC2 [Compound 173, 2-(3-Chloro-4-fluorophenyl)-N^5-(3,5-dichlorophenyl)-6,7-dihydropyrazolo[1,5-a] pyrazine-3,5(4H)-dicarboxamide]
0.01 to 10 nM	0.01 to 10 nM	N#Cc1ccc(NC(=O)N2CCn3nc(-c4ccc(F)c(Cl)c4)c(C(N)=O)c3C2)cc1C1CC1 [Compound A50, 2-(3-Chloro-4-fluorophenyl)-N^5-(4-cyano-3-cyclopropylphenyl)-6,7-dihydropyrazolo[1,5-a]pyrazine-3,5(4H)-dicarboxamide]
0.01 to 10 nM	0.01 to 10 nM	COc1cc(NC(=O)N2CCn3nc(-c4cccc(F)c4)c(C(N)=O)c3C2)cc(OC)c1 [Compound 56, N^5-(3,5-Dimethoxyphenyl)-2-(3-fluorophenyl)-6,7-dihydropyrazolo[1,5-a]pyrazine-3,5(4H)-dicarboxamide]
0.01 to 10 nM	0.01 to 10 nM	Cc1cc(-c2nn3c(c2C(N)=O)CN(C(=O)Nc2ccc4c(c2)CS(=O)(=O)C4)CC3)ccc1F [Compound 246, N^5-(2,2-Dioxido-1,3-dihydrobenzo[c]thiophen-5-yl)-2-(4-fluoro-3-methylphenyl)-6,7-dihydropyrazolo[1,5-a] pyrazine-3,5(4H)-dicarboxamide]
10 to 100 nM	10 to 100 nM	COc1ccc(Cl)cc1-c1nn2c(c1C(N)=O)CN(C(=O)Nc1ccc(C#N)cc1)CC2 [Compound 278, 2-(5-Chloro-2-methoxyphenyl)-N^5-(4-cyanophenyl)-6,7-dihydropyrazolo[1,5-a] pyrazine-3,5(4H)-dicarboxamide]
0.01 to 10 nM	0.01 to 10 nM	NC(=O)c1c(-c2cccc(F)c2)nn2c1CN(C(=O)NC13CC4CC(O)(CC(F)(C4)C1)C3)CC2 (stereo not drawn) [Compound 94, N^5-(3-Fluoro-5-hydroxyadamantan-1-yl)-2-(3-fluorophenyl)-6,7-dihydropyrazolo[1,5-a]pyrazine-3,5(4H)-dicarboxamide]
0.01 to 10 nM	0.01 to 10 nM	N#Cc1ccc(NC(=O)N2CCn3nc(-c4cc(Cl)c(F)c(Cl)c4)c(C(N)=O)c3C2)cc1 [Compound 259, N^5-(4-Cyanophenyl)-2-(3,5-dichloro-4-fluorophenyl)-6,7-dihydropyrazolo[1,5-a]pyrazine-3,5(4H)-dicarboxamide]
0.01 to 10 nM	0.01 to 10 nM	COc1cc(NC(=O)N2CCn3nc(-c4cccc(F)c4)c(C(N)=O)c3C2)ccc1C(F)(F)F [Compound 78, 2-(3-Fluorophenyl)-N^5-(3-methoxy-4-(trifluoromethyl)phenyl)-6,7-dihydropyrazolo[1,5-a]pyrazine-3,5(4H)-dicarboxamide]
0.01 to 10 nM	0.01 to 10 nM	NC(=O)c1c(-c2ccc(F)c(Cl)c2)nn2c1CN(C(=O)Nc1ccc(F)c(Cl)c1)CC2 [Compound 185, N^5,2-Bis(3-chloro-4-fluorophenyl)-6,7-dihydropyrazolo[1,5-a] pyrazine-3,5(4H)-dicarboxamide]
0.01 to 10 nM	0.01 to 10 nM	NC(=O)c1c(-c2cccc(F)c2)nn2c1CN(C(=O)Nc1ccc(-c3ccccc3)cc1)CC2 [Compound 62, N^5-([1,1′-Biphenyl]-4-yl)-2-(3-fluorophenyl)-6,7-dihydropyrazolo[1,5-a]pyrazine-3,5(4H)-dicarboxamide]
0.01 to 10 nM	0.01 to 10 nM	N#Cc1ccc(NC(=O)N2CCn3nc(-c4ccc(F)c(F)c4)c(C(N)=O)c3C2)cc1 [Compound 291, N^5-(4-Cyanophenyl)-2-(3,4-difluorophenyl)-6,7-dihydropyrazolo[1,5-a] pyrazine-3,5(4H)-dicarboxamide]
0.01 to 10 nM	0.01 to 10 nM	NC(=O)c1ccc(NC(=O)N2CCn3nc(-c4ccc(F)c(Cl)c4)c(C(N)=O)c3C2)cc1 [Compound 180, N^5-(4-Carbamoylphenyl)-2-(3-chloro-4-fluorophenyl)-6,7-dihydropyrazolo[1,5-a] pyrazine-3,5(4H)-dicarboxamide]
0.01 to 10 nM	0.01 to 10 nM	N#Cc1ccc(NC(=O)N2CCn3nc(-c4cnc(F)c(Cl)c4)c(C(N)=O)c3C2)cc1 [Compound 293, 2-(5-Chloro-6-fluoropyridin-3-yl)-N^5-(4-cyanophenyl)-6,7-dihydropyrazolo[1,5-a] pyrazine-3,5(4H)-dicarboxamide]
0.01 to 10 nM	0.01 to 10 nM	Cc1ccc(NC(=O)N2CCn3nc(-c4ccc(F)c(Cl)c4)c(C(N)=O)c3C2)cc1C [Compound 175, 2-(3-Chloro-4-fluorophenyl)-N^5-(3,4-dimethylphenyl)-6,7-dihydropyrazolo[1,5-a] pyrazine-3,5(4H)-dicarboxamide]
0.01 to 10 nM	0.01 to 10 nM	N#Cc1ccc(NC(=O)N2Cc3c(C(N)=O)c(-c4ccc(F)c(Cl)c4)nn3CC2C(F)(F)F)cc1 (single isomer, unassigned) [Compound 336, 2-(3-Chloro-4-fluorophenyl)-N^5-(4-cyanophenyl)-6-(trifluoromethyl)-6,7-dihydropyrazolo[1,5-a]pyrazine-3,5(4H)-dicarboxamide]
0.01 to 10 nM	0.01 to 10 nM	Cc1cc(NC(=O)N2CCn3nc(-c4cc(Cl)c5[nH]ncc5c4)c(C(N)=O)c3C2)ccc1C#N [Compound 317, 2-(7-Chloro-1H-indazol-5-yl)-N^5-(4-cyano-3-methylphenyl)-6,7-dihydropyrazolo[1,5-a]pyrazine-3,5(4H)-dicarboxamide]
0.01 to 10 nM	0.01 to 10 nM	NC(=O)c1c(-c2ccc(Cl)c(Cl)c2)nn2c1CN(C(=O)Nc1ccc(OC(F)(F)F)cc1)CC2 [Compound 213, 2-(3,4-Dichlorophenyl)-N^5-(4-(trifluoromethoxy)phenyl)-6,7-dihydropyrazolo[1,5-a] pyrazine-3,5(4H)-dicarboxamide]
100 to 2000 nM	100 to 2000 nM	N#Cc1ccc(NC(=O)N2Cc3c(C(N)=O)c(-c4ccc(F)c(Cl)c4)nn3CC2C2CC2)cc1 (stereo not drawn) [Compound 341]
0.01 to 10 nM	0.01 to 10 nM	COc1cccc(NC(=O)N2CCn3nc(-c4cccc(Cl)c4)c(C(N)=O)c3C2)c1 [Compound 170, 2-(3-Chlorophenyl)-N^5-(3-methoxyphenyl)-6,7-dihydropyrazolo[1,5-a] pyrazine-3,5(4H)-dicarboxamide]
0.01 to 10 nM	0.01 to 10 nM	NC(=O)c1c(-c2cccc(F)c2)nn2c1CN(C(=O)Nc1cccc(C(F)(F)F)c1)CC2 [Compound 50, 2-(3-Fluorophenyl)-N^5-(3-(trifluoromethyl)phenyl)-6,7-dihydropyrazolo[1,5-a]pyrazine-3,5(4H)-dicarboxamide]
0.01 to 10 nM	0.01 to 10 nM	COc1cc(F)cc(-c2nn3c(c2C(N)=O)CN(C(=O)Nc2ccc(C#N)cc2)CC3)c1 [Compound 285, N^5-(4-Cyanophenyl)-2-(3-fluoro-5-methoxyphenyl)-6,7-dihydropyrazolo[1,5-a] pyrazine-3,5(4H)-dicarboxamide]
